Results from US6613538B2, “Detection of HLA-G” (priority 1999, dated 2003).

Experiments:
Assay type in all cases: cell-based, human
[1] = tested on: JEG-3 choriocarcinoma cells; experiment: HLA-G mRNA by quantitative RT-PCR after progesterone treatment
Experimental: (§1) Methods. Purified cytotrophoblasts were prepared from first trimester placental tissue by standard techniques. JEG-3 choriocarcinoma cells were cultured in RPMI-1640 medium containing 10% FCS for three days. The cells were then treated with various doses of progesterone for 24 hours. Cell lysates and conditioned media were prepared for ELISA and total RNA was extracted for PCR. The ELISA was conducted according to the invention, using the 3C/G4 and 2C/C8 anti-HLA-G monoclonal antibodies. HLA-G protein, purified by immunoaffinity columns from first trimester placental tissue, was used as standard. The sensitivity of the ELISA was 20 ng/ml and assay variation was less than 10%. Quantitative RT-PCR was performed by using specific primers for HLA-G. Results were assessed for statistical significance using one-way analysis of variance.

cytotrophoblast cells = experiment: as above
Experimental: as §1

[2] = tested on: JEG-3 choriocarcinoma cells; experiment: HLA-G protein by ELISA after progesterone treatment; details: progesterone doses from 10 ng/ml, 24 hours
Experimental: as §1

[3] = tested on: cytotrophoblasts (placenta cell culture); experiment: as above; details: progesterone 100 ng and 1000 ng/ml, 24 hours
Experimental: as §1

Q: Which “HLA-G mRNA levels in JEG-3 cells” value ([1]; after progesterone treatment, RT-PCR) does the source give for `CC(=O)[C@H]1CC[C@H]2[C@@H]3CCC4=CC(=O)CC[C@]4(C)[C@H]3CC[C@]12C` [progesterone] here?
A: increase of HLA-G mRNA levels

Q: And the “HLA-G mRNA levels at 1000 ng/ml versus 10 and 100 ng/ml” value ([1]; progesterone 1000 ng/ml, cell type not specified in the sentence (JEG-3 and cytotrophoblast cells tested))?
A: significantly higher HLA-G mRNA levels

Q: And the “HLA-G mRNA levels in cytotrophoblast cells” value (cytotrophoblast cells)?
A: increase of HLA-G mRNA levels

Q: What about the “HLA-G concentration in JEG-3 cell lysate” value [2] of the same compound?
A: significant increase

Q: And the “HLA-G concentration in JEG-3 conditioned medium” value [2]?
A: significant increase

Q: And the “HLA-G protein in placenta cell culture” value [3]?
A: significantly increased
